Where two headings read alike, the source gives them in different places.
What was measured:
[1] = molecular target: aggregated beta amyloid in AD tissue (Homo sapiens, UniProt P05067); assay: Competitive radioligand binding to pathological aggregated beta amyloid in AD tissue (Assay 2), displacement of [^3H]-105; conditions: Aβ-rich AD frontal cortex homogenate, [^3H]-105, Kd 11.0 nM
Protocol: Frozen human brain samples of Alzheimer's disease (AD) were purchased from Analytic Biological Services Inc. The samples were post-mortem tissue from donors with clinical diagnosis of AD and much of the white matter was dissected out of the frontal cortex in order to enrich the tissue preparations for gray matter. Brain homogenates of gray matter enriched frontal cortex were prepared by homogenizing the tissue in ice cold Phosphate Buffered Saline (PBS), pH 7.4 at 80 mg wet weight tissue per 1 ml for 45 seconds at 4° C., on setting 16 of Polytron. The homogenate was further diluted with ice cold PBS to 30 mg wet weight tissue per 1 ml and homogenized for an additional minute as described above. Homogenates were aliquoted in 5 ml/tube and stored at −70° C. until use.
Radioligand [^3H]-105, prepared as described in ACS Med. Chem. Lett., Vol. 2, pages 498-502, was used in this assay.
For Assay 2 unlabeled test compounds were dissolved in DMSO at 10 mM. Dilutions of tests compounds to various concentrations were made in 100% DMSO at 1000× final assay concentration and 0.225 μl aliquots were dispensed into assay plates. Brain homogenates were diluted to 0.5 mg/ml from original 30 mg/ml volume in Assay Buffer, and 200 μl were added to the assay plate for a final concentration of 100 ug wet weight/assay well. [^3H]-105 was prepared at 10× final concentration in Assay Buffer plus 20% DMSO and 25 μl was added to the assay plate for final assay concentration of 3.0 nM. The plates were incubated at 37° C. for 90 minutes. Unbound and bound ligand were separated by filtration of bound onto GF/B filter plates (pre-treated for 30 min with 0.1% PEI) using a Packard Filtermate and washing away unbound with 2.5 mil ice cold 5 mM Tris at pH 7.4. Filter plates were dried for 1 hr at 57° C. and 50 μl Microscint was added to each well of the plate. The plates were counted for ^3H cpm for 1 min per well using PerkinElmer TopCount.

[2] = molecular target: T1, triton-extracted alpha-synuclein from PD Tissue (Homo sapiens, UniProt P37840); assay: Alpha-synuclein tissue homogenate binding assay (Assay 1), displacement of [^3H]-1000; conditions: for Selectivity ratio (Assay 2/Assay 1): Aβ Tissue Ki / α-synuclein Tissue Ki; for Ki: read-out: α-synuclein Tissue Ki (Assay 1)
T1 construct: tissue Analytic Biological Services Inc; host or cells: human PD temporal cortex grey matter, Triton X-100 insoluble pellet
Protocol: Frozen human brain tissues from PD patients were purchased from Analytic Biological Services Inc. The samples were post-mortem tissues from donors with clinical diagnosis of late stage of PD. Alpha-synuclein, tau and amyloid burden was determined through a combination of immunohistochemistry on frozen thin coronal sections, as well as alpha Lisa-based quantification of protein levels in a detergent insoluble protein fraction. A tissue sample of temporal cortex was identified from one donor as having moderate to high alpha-synuclein burden, low amyloid and minimal to no tau pathology. The detergent insoluble fraction of temporal cortex from this patient was used to support homogenate binding studies. Grey matter was dissected out of the temporal cortex tissue with a dissecting blade and minced with fine dissecting scissors. […] Homogenates were centrifuged at 100,000×g for 45 minutes. The pellet was resuspended in TBS-TX buffer, using a Polytron at highest setting for 30 seconds at 4° C. Homogenates were centrifuged at 100,000×g for 45 minutes and the pellet was resuspended in TBS-TX buffer. A BCA protein assay was performed on the final homogenate to determine the protein concentration. […] For displacement a-synuclein binding assay, compounds and control were solvated in dimethyl sulfoxide (DMSO) and transferred using focused acoustic energy by an Echo 655 liquid handling instrument (Beckman Coulter, Indianapolis, IN) into designated wells of uniquely bar coded 96-well v-bottom low binding polypropylene microplates (Thermo Scientific, 249946). Compound dose response curves were prepared in a 10-point, 3-fold fashion within columns 2-11 of the microplate from high to low compound concentrations. […] Liquid-handling steps for dispensing insoluble fractions of PD brain homogenates and radioligand were performed using a Bravo automated liquid handling platform equipped with a 96LT disposable tip head (Agilent Technologies, Santa Clara. CA). […] The incubation was terminated by rapid filtration through UniFilter-96 GF/C microplates (pre-treated for 30 minutes with 0.2% Polyethylenimine at 4° C.) by using a FilterMate Harvester (PerkinElmer). […] The bottom of each UniFilter-96 GF/C microplate was adhesively sealed (PerkinElmer 6005199) prior to the addition of 50 μL MicroScint-20 liquid scintillation cocktail (PerkinElmer 6013621) to each well. A clear adhesive seal (TopSeal-A PLUS, PerkinElmer 6050185) was then applied to the top of each microplate and counted 1 minute/well on MicroBeta^2 system (PerkinElmer.

[3] = insoluble fraction of PD brain homogenate, [^3H]-1000 3.0 nM, Kd 0.90 nM

Sequence of aggregated beta amyloid in AD tissue (P05067 672-711 limits assumed): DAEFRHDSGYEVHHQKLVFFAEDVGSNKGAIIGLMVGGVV

COC[C@H]1CN(c2cc(F)ccn2)CCN1c1ncc(/C=C/c2ccc(-n3ccnc3)nc2)cn1 [Example 17, (R,E)-5-(2-(6-(1H-imidazol-1-yl)pyridin-3-yl)vinyl)-2-(4-(4-fluoropyridin-2-yl)-2-(methoxymethyl)piperazin-1-yl)pyrimidine]
Ki [1]: ≥ 12000 nM
Selectivity ratio (Assay 2/Assay 1) [2]: 13333

COC[C@H]1CN(c2ccccn2)CCN1c1ncc(/C=C/c2cnc3nc(C)cn3c2)cn1 [Example 19, (R,E)-6-(2-(2-(2-(methoxymethyl)-4-(pyridin-2-yl)piperazin-1-yl)pyrimidin-5-yl)vinyl)-2-methylimidazo[1,2-a]pyrimidine]
Ki [1]: ≥ 12000 nM
Selectivity ratio (Assay 2/Assay 1) [2]: 8571
Ki [2, 3]: 1.4 nM

COC[C@H]1CN(c2cc(Cl)ncn2)CCN1c1ncc(/C=C/c2ccc(-n3ccnc3)nc2)cn1 [Example 14, (R,E)-5-(2-(6-(1H-imidazol-1-yl)pyridin-3-yl)vinyl)-2-(4-(6-chloropyrimidin-4-yl)-2-(methoxymethyl)piperazin-1-yl)pyrimidine]
Ki [1]: ≥ 12000 nM
Selectivity ratio (Assay 2/Assay 1) [2]: 9231
Ki [2, 3]: 1.3 nM

COC[C@H]1CN(c2ncc(/C=C/c3ccc(-n4ccnc4)nc3)cn2)CCN1c1ncc(F)cn1 [Example 27, (R,E)-5-(2-(6-(1H-imidazol-1-yl)pyridin-3-yl)vinyl)-2-(4-(5-fluoropyrimidin-2-yl)-3-(methoxymethyl)piperazin-1-yl)pyrimidine]
Ki [1]: 80 nM
Selectivity ratio (Assay 2/Assay 1) [2]: 44
Ki [2, 3]: 1.8 nM

Cn1cc(-c2ncc(C#Cc3cnc(N4CCN(c5ncccn5)[C@@H](COCCF)C4)nc3)cn2)cn1 [Example 51, (R)-2-(3-((2-fluoroethoxy)methyl)-4-(pyrimidin-2-yl)piperazin-1-yl)-5-((2-(1-methyl-1H-pyrazol-4-yl)pyrimidin-5-yl)ethynyl)pyrimidine]
Ki [1]: ≥ 1200 nM
Selectivity ratio (Assay 2/Assay 1) [2]: 654
Ki [2, 3]: 1.83 nM

OC[C@H]1CN(c2ncc(C#Cc3ccc(-n4ccnc4)nc3)cn2)CCN1c1ncccn1 [Example 10, (R)-(4-(5-((6-(1H-imidazol-1-yl)pyridin-3-yl)ethynyl)pyrimidin-2-yl)-1-(pyrimidin-2-yl)piperazin-2-yl)methanol]
Ki [1]: ≥ 12000 nM
Selectivity ratio (Assay 2/Assay 1) [2]: 2449
Ki [2]: 4.9 nM

COC[C@H]1CN(c2ncc(C#Cc3ccc(-n4ccnc4)nc3)cn2)CCN1c1ncccn1 [Example 11, (R)-5-((6-(1H-imidazol-1-yl)pyridin-3-yl)ethynyl)-2-(3-(methoxymethyl)-4-(pyrimidin-2-yl)piperazin-1-yl)pyrimidine]
Ki [1]: ≥ 12000 nM
Selectivity ratio (Assay 2/Assay 1) [2]: 10909
Ki [2, 3]: 1.1 nM

COC[C@H]1CN(c2ncc(/C=C/c3ccc(-n4ccnc4)nc3)cn2)CCN1c1ncccn1 [Example 2, (R,E)-5-(2-(6-(1H-imidazol-1-yl)pyridin-3-yl)vinyl)-2-(3-(methoxymethyl)-4-(pyrimidin-2-yl)piperazin-1-yl)pyrimidine]
Ki [1]: ≥ 12000 nM
Selectivity ratio (Assay 2/Assay 1) [2]: 13333
Ki [2, 3]: 0.9 nM

FCCOC[C@H]1CN(c2ncc(/C=C/c3ccc(-c4cnco4)nc3)cn2)CCN1c1ccncn1 [Example 42, (R,E)-5-(5-(2-(2-(3-((2-fluoroethoxy)methyl)-4-(pyrimidin-4-yl)piperazin-1-yl)pyrimidin-5-yl)vinyl)pyridin-2-yl)oxazole]
Ki [1]: ≥ 1200 nM
Selectivity ratio (Assay 2/Assay 1) [2]: 1538
Ki [2, 3]: 0.78 nM

COC[C@H]1CN(c2ncc(C)cn2)CCN1c1ncc(/C=C/c2ccc(-n3ccnc3)nc2)cn1 [Example 25, (R,E)-5-(2-(6-(1H-imidazol-1-yl)pyridin-3-yl)vinyl)-2-(2-(methoxymethyl)-4-(5-methylpyrimidin-2-yl)piperazin-1-yl)pyrimidine]
Ki [1]: 360 nM
Selectivity ratio (Assay 2/Assay 1) [2]: 400
Ki [2, 3]: 0.9 nM

COC[C@H]1CN(c2ncc(C#Cc3cnc(-c4cnn(CCF)c4)nc3)cn2)CCN1c1ncncn1 [Example 46, (R)-2-(4-(5-((2-(1-(2-fluoroethyl)-1H-pyrazol-4-yl)pyrimidin-5-yl)ethynyl)pyrimidin-2-yl)-2-(methoxymethyl)piperazin-1-yl)-1,3,5-triazine]
Ki [1]: ≥ 1200 nM
Selectivity ratio (Assay 2/Assay 1) [2]: 929
Ki [2, 3]: 1.29 nM

FCCOC[C@H]1CN(c2ncc(C#Cc3ccc(-n4cnnc4)nc3)cn2)CCN1c1ncncn1 [Example 70, (R)-2-(4-(5-((6-(4H-1,2,4-triazol-4-yl)pyridin-3-yl)ethynyl)pyrimidin-2-yl)-2-((2-fluoroethoxy)methyl)piperazin-1-yl)-1,3,5-triazine]
Ki [1]: ≥ 1200 nM
Selectivity ratio (Assay 2/Assay 1) [2]: 472
Ki [2, 3]: 2.54 nM

COC[C@H]1CN(c2ccccn2)CCN1c1ncc(/C=C/c2ccc(-n3ccnc3)nc2)cn1 [Example 18, (R,E)-5-(2-(6-(1H-imidazol-1-yl)pyridin-3-yl)vinyl)-2-(2-(methoxymethyl)-4-(pyridin-2-yl)piperazin-1-yl)pyrimidine]
Ki [1]: ≥ 12000 nM
Selectivity ratio (Assay 2/Assay 1) [2]: 24000
Ki [2, 3]: 0.5 nM

COC[C@H]1CN(c2ncc(C#Cc3ccc(N4CC(F)C4)nc3)cn2)CCN1c1ncccn1 [Example 68, (R)-5-((6-(3-fluoroazetidin-1-yl)pyridin-3-yl)ethynyl)-2-(3-(methoxymethyl)-4-(pyrimidin-2-yl)piperazin-1-yl)pyrimidine]
Ki [1]: ≥ 1200 nM
Selectivity ratio (Assay 2/Assay 1) [2]: 469
Ki [2, 3]: 2.56 nM

COC[C@H]1CN(c2ncc(/C=C/c3ccc(-n4ccnc4)nc3)cn2)CCN1c1ncc(CO)cn1 [Example 7, (R,E)-(2-(4-(5-(2-(6-(1H-imidazol-1-yl)pyridin-3-yl)vinyl)pyrimidin-2-yl)-2-(methoxymethyl)piperazin-1-yl)pyrimidin-5-yl)methanol]
Ki [1]: 480 nM
Selectivity ratio (Assay 2/Assay 1) [2]: 436
Ki [2]: 1.1 nM

COCc1cnc(N2CCN(c3ncc(/C=C/c4ccc(-n5ccnc5)nc4)cn3)[C@@H](COC)C2)nc1 [Example 9, (R,E)-5-(2-(6-(1H-imidazol-1-yl)pyridin-3-yl)vinyl)-2-(2-(methoxymethyl)-4-(5-(methoxymethyl)pyrimidin-2-yl)piperazin-1-yl)pyrimidine]
Ki [1]: ≥ 12000 nM
Selectivity ratio (Assay 2/Assay 1) [2]: 15000
Ki [2, 3]: 0.8 nM

COC[C@H]1CN(c2ncc(C#Cc3ccc(-n4cnnc4)nc3)cn2)CCN1c1cc(F)ncn1 [Example 45, (R)-5-((6-(4H-1,2,4-triazol-4-yl)pyridin-3-yl)ethynyl)-2-(4-(6-fluoropyrimidin-4-yl)-3-(methoxymethyl)piperazin-1-yl)pyrimidine]
Ki [1]: ≥ 1200 nM
Selectivity ratio (Assay 2/Assay 1) [2]: 589
Ki [2, 3]: 2.04 nM

FCCOC[C@H]1CN(c2ccncc2)CCN1c1ncc(/C=C/c2ccc(-n3ccnc3)nc2)cn1 [Example 31, (R,E)-5-(2-(6-(1H-imidazol-1-yl)pyridin-3-yl)vinyl)-2-(2-((2-fluoroethoxy)methyl)-4-(pyridin-4-yl)piperazin-1-yl)pyrimidine]
Ki [1]: 1300 nM
Selectivity ratio (Assay 2/Assay 1) [2]: 2600
Ki [2, 3]: 0.5 nM

COCCOC[C@H]1CN(c2ncc(C#Cc3ccc(-n4ccnc4)nc3)c(F)n2)CCN1c1ncncn1 [Example 80, (R)-2-(4-(5-((6-(1H-imidazol-1-yl)pyridin-3-yl)ethynyl)-4-fluoropyrimidin-2-yl)-2-((2-methoxyethoxy)methyl)piperazin-1-yl)-1,3,5-triazine]
Ki [1]: ≥ 1200 nM
Selectivity ratio (Assay 2/Assay 1) [2]: 794
Ki [2, 3]: 1.51 nM

COC[C@H]1CN(c2ccnc(F)c2)CCN1c1ncc(/C=C/c2ccc(-n3ccnc3)nc2)cn1 [Example 29, (R,E)-5-(2-(6-(1H-imidazol-1-yl)pyridin-3-yl)vinyl)-2-(4-(2-fluoropyridin-4-yl)-2-(methoxymethyl)piperazin-1-yl)pyrimidine]
Ki [1]: 180 nM
Selectivity ratio (Assay 2/Assay 1) [2]: 180
Ki [2, 3]: 1 nM

COC[C@H]1CN(c2ncc(/C=C/c3ccc(-n4ccnc4)nc3)cn2)CCN1c1ccnc(F)n1 [Example 34, (R,E)-4-(4-(5-(2-(6-(1H-imidazol-1-yl)pyridin-3-yl)vinyl)pyrimidin-2-yl)-2-(methoxymethyl)piperazin-1-yl)-2-fluoropyrimidine]
Ki [1]: ≥ 12000 nM
Selectivity ratio (Assay 2/Assay 1) [2]: 6667
Ki [2, 3]: 1.8 nM
